Experimental data taken from PubChem BioAssay (NCI).
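Following 48 hours of exposure in 96-well plates, responses at five concentrations were used to interpolate endpoints linearly. The concentration for full growth arrest is given as TGI.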

Key:
Experiment in all cases: inhibition of tumour cell growth, NCI panel, 48 h
786-0 renal = tested on: 786-0 renal
A498 renal = tested on: A498 renal
A549 NSCLC = tested on: A549 NSCLC
ACHN renal = tested on: ACHN renal
BT-549 breast = tested on: BT-549 breast
CAKI-1 renal = tested on: CAKI-1 renal
CCRF-CEM leukemia = tested on: CCRF-CEM leukemia
COLO 205 colon = tested on: COLO 205 colon
DU-145 prostate = tested on: DU-145 prostate
EKVX NSCLC = tested on: EKVX NSCLC
HCC-2998 colon = tested on: HCC-2998 colon
HCT-116 colon = tested on: HCT-116 colon
HCT-15 colon = tested on: HCT-15 colon
HL-60(TB) leukemia = tested on: HL-60(TB) leukemia
HOP-62 NSCLC = tested on: HOP-62 NSCLC
HOP-92 NSCLC = tested on: HOP-92 NSCLC
HS 578T breast = tested on: HS 578T breast
HT29 colon = tested on: HT29 colon
IGROV1 ovarian = tested on: IGROV1 ovarian
K-562 leukemia = tested on: K-562 leukemia
KM12 colon = tested on: KM12 colon
LOX IMVI melanoma = tested on: LOX IMVI melanoma
M14 melanoma = tested on: M14 melanoma
MALME-3M melanoma = tested on: MALME-3M melanoma
MCF7 breast = tested on: MCF7 breast
MDA-MB-231 breast = tested on: MDA-MB-231 breast
MDA-MB-435 = tested on: MDA-MB-435
MDA-N = tested on: MDA-N
MOLT-4 leukemia = tested on: MOLT-4 leukemia
NCI-H226 lung = tested on: NCI-H226 lung
NCI-H23 lung = tested on: NCI-H23 lung
NCI-H460 lung = tested on: NCI-H460 lung
NCI-H522 lung = tested on: NCI-H522 lung
NCI/ADR-RES ovarian = tested on: NCI/ADR-RES ovarian
OVCAR-3 ovarian = tested on: OVCAR-3 ovarian
OVCAR-4 ovarian = tested on: OVCAR-4 ovarian
OVCAR-5 ovarian = tested on: OVCAR-5 ovarian
OVCAR-8 ovarian = tested on: OVCAR-8 ovarian
PC-3 prostate = tested on: PC-3 prostate
RPMI-8226 leukemia = tested on: RPMI-8226 leukemia
RXF 393 renal = tested on: RXF 393 renal
SF-268 CNS = tested on: SF-268 CNS
SF-295 CNS = tested on: SF-295 CNS
SF-539 CNS = tested on: SF-539 CNS
SK-MEL-2 melanoma = tested on: SK-MEL-2 melanoma
SK-MEL-28 melanoma = tested on: SK-MEL-28 melanoma
SK-MEL-5 melanoma = tested on: SK-MEL-5 melanoma
SK-OV-3 ovarian = tested on: SK-OV-3 ovarian
SN12C renal = tested on: SN12C renal
SNB-19 CNS = tested on: SNB-19 CNS
SNB-75 CNS = tested on: SNB-75 CNS
SR leukemia = tested on: SR leukemia
SW-620 colon = tested on: SW-620 colon
T-47D breast = tested on: T-47D breast
TK-10 renal = tested on: TK-10 renal
U251 CNS = tested on: U251 CNS
UACC-257 melanoma = tested on: UACC-257 melanoma
UACC-62 melanoma = tested on: UACC-62 melanoma
UO-31 renal = tested on: UO-31 renal

## C[C@]12CC[C@@H]3c4cc(OCC(F)(F)F)c(O)cc4C(=O)C[C@H]3[C@@H]1CC[C@@H]2O
786-0 renal
  TGI: > 100 µM
A498 renal
  TGI: > 100 µM
A549 NSCLC
  TGI: > 100 µM
ACHN renal
  TGI: > 100 µM
BT-549 breast
  TGI: > 100 µM
CAKI-1 renal
  TGI: > 100 µM
CCRF-CEM leukemia
  TGI: > 66.3 µM
COLO 205 colon
  TGI: > 84.5 µM
DU-145 prostate
  TGI: > 100 µM
EKVX NSCLC
  TGI: > 100 µM
HCC-2998 colon
  TGI: 38.7 µM
HCT-116 colon
  TGI: > 100 µM
HCT-15 colon
  TGI: > 100 µM
HL-60(TB) leukemia
  TGI: 4.68 µM
HOP-62 NSCLC
  TGI: > 100 µM
HOP-92 NSCLC
  TGI: > 100 µM
HS 578T breast
  TGI: 43.9 µM
HT29 colon
  TGI: 38.4 µM
IGROV1 ovarian
  TGI: > 100 µM
K-562 leukemia
  TGI: > 100 µM
KM12 colon
  TGI: > 64.4 µM
LOX IMVI melanoma
  TGI: > 100 µM
M14 melanoma
  TGI: > 41.7 µM
MALME-3M melanoma
  TGI: 88.1 µM
MCF7 breast
  TGI: > 100 µM
MDA-MB-231 breast
  TGI: > 66.4 µM
MDA-MB-435
  TGI: > 25.4 µM
MDA-N
  TGI: 5.69 µM
MOLT-4 leukemia
  TGI: > 100 µM
NCI-H226 lung
  TGI: > 100 µM
NCI-H23 lung
  TGI: > 100 µM
NCI-H460 lung
  TGI: > 100 µM
NCI-H522 lung
  TGI: > 100 µM
NCI/ADR-RES ovarian
  TGI: > 31.3 µM
OVCAR-3 ovarian
  TGI: 7.59 µM
OVCAR-4 ovarian
  TGI: > 100 µM
OVCAR-5 ovarian
  TGI: > 85.3 µM
OVCAR-8 ovarian
  TGI: > 84.7 µM
PC-3 prostate
  TGI: > 67.7 µM
RPMI-8226 leukemia
  TGI: > 100 µM
RXF 393 renal
  TGI: 58.5 µM
SF-268 CNS
  TGI: > 100 µM
SF-295 CNS
  TGI: 15.4 µM
SF-539 CNS
  TGI: 22.6 µM
SK-MEL-2 melanoma
  TGI: > 26.1 µM
SK-MEL-28 melanoma
  TGI: > 52.3 µM
SK-MEL-5 melanoma
  TGI: > 82.8 µM
SK-OV-3 ovarian
  TGI: 47.5 µM
SN12C renal
  TGI: > 100 µM
SNB-19 CNS
  TGI: > 79.5 µM
SNB-75 CNS
  TGI: 65.7 µM
SR leukemia
  TGI: > 100 µM
SW-620 colon
  TGI: > 100 µM
T-47D breast
  TGI: > 100 µM
TK-10 renal
  TGI: > 100 µM
U251 CNS
  TGI: > 38.8 µM
UACC-257 melanoma
  TGI: > 100 µM
UACC-62 melanoma
  TGI: > 100 µM
UO-31 renal
  TGI: > 100 µM

## CCCCn1c(C)c(C(=O)OCC)s/c1=N/Nc1nc2ccccc2nc1-c1ccccc1
786-0 renal
  TGI: > 100 µM
A498 renal
  TGI: > 100 µM
A549 NSCLC
  TGI: > 100 µM
ACHN renal
  TGI: > 100 µM
BT-549 breast
  TGI: > 100 µM
CAKI-1 renal
  TGI: > 100 µM
CCRF-CEM leukemia
  TGI: > 100 µM
COLO 205 colon
  TGI: > 100 µM
DU-145 prostate
  TGI: 94.1 µM
EKVX NSCLC
  TGI: > 100 µM
HCC-2998 colon
  TGI: > 100 µM
HCT-116 colon
  TGI: > 100 µM
HCT-15 colon
  TGI: > 100 µM
HL-60(TB) leukemia
  TGI: > 100 µM
HOP-62 NSCLC
  TGI: 83.5 µM
HOP-92 NSCLC
  TGI: > 100 µM
HS 578T breast
  TGI: 60.3 µM
HT29 colon
  TGI: > 100 µM
IGROV1 ovarian
  TGI: > 100 µM
K-562 leukemia
  TGI: > 100 µM
LOX IMVI melanoma
  TGI: > 100 µM
M14 melanoma
  TGI: > 100 µM
MCF7 breast
  TGI: > 100 µM
MDA-MB-231 breast
  TGI: > 100 µM
MDA-MB-435
  TGI: > 100 µM
MDA-N
  TGI: > 100 µM
MOLT-4 leukemia
  TGI: > 100 µM
NCI-H226 lung
  TGI: > 100 µM
NCI-H23 lung
  TGI: > 100 µM
NCI-H460 lung
  TGI: > 100 µM
NCI-H522 lung
  TGI: > 100 µM
NCI/ADR-RES ovarian
  TGI: > 100 µM
OVCAR-3 ovarian
  TGI: > 100 µM
OVCAR-4 ovarian
  TGI: > 100 µM
OVCAR-5 ovarian
  TGI: > 100 µM
OVCAR-8 ovarian
  TGI: > 100 µM
PC-3 prostate
  TGI: > 100 µM
RPMI-8226 leukemia
  TGI: > 100 µM
RXF 393 renal
  TGI: > 100 µM
SF-295 CNS
  TGI: > 100 µM
SF-539 CNS
  TGI: > 100 µM
SK-MEL-2 melanoma
  TGI: > 100 µM
SK-MEL-28 melanoma
  TGI: > 100 µM
SK-MEL-5 melanoma
  TGI: > 100 µM
SK-OV-3 ovarian
  TGI: > 100 µM
SN12C renal
  TGI: > 100 µM
SNB-19 CNS
  TGI: > 100 µM
SNB-75 CNS
  TGI: > 100 µM
SR leukemia
  TGI: > 100 µM
SW-620 colon
  TGI: > 100 µM
T-47D breast
  TGI: > 100 µM
TK-10 renal
  TGI: > 100 µM
U251 CNS
  TGI: > 100 µM
UACC-257 melanoma
  TGI: > 100 µM
UACC-62 melanoma
  TGI: > 100 µM
